Source: publication PMC4851326, “Pharmacologic Comparison of Clinical Neutral Endopeptidase Inhibitors in a Rat Model of Acute Secretory Diarrhea” (The Journal of Pharmacology and Experimental Therapeutics, 2016)

Legend:
Conditions in all cases: recombinant purified human enzyme; for prodrugs the active form was tested
[1] = molecular target: T1, puromycin-sensitive aminopeptidase (Homo sapiens, UniProt P55786); experiment: Purified peptidase assay, PSA; format: biochemical
T1 construct: purchased R&D Systems (Minneapolis, MN)
T1 sequence (P55786 whole entry): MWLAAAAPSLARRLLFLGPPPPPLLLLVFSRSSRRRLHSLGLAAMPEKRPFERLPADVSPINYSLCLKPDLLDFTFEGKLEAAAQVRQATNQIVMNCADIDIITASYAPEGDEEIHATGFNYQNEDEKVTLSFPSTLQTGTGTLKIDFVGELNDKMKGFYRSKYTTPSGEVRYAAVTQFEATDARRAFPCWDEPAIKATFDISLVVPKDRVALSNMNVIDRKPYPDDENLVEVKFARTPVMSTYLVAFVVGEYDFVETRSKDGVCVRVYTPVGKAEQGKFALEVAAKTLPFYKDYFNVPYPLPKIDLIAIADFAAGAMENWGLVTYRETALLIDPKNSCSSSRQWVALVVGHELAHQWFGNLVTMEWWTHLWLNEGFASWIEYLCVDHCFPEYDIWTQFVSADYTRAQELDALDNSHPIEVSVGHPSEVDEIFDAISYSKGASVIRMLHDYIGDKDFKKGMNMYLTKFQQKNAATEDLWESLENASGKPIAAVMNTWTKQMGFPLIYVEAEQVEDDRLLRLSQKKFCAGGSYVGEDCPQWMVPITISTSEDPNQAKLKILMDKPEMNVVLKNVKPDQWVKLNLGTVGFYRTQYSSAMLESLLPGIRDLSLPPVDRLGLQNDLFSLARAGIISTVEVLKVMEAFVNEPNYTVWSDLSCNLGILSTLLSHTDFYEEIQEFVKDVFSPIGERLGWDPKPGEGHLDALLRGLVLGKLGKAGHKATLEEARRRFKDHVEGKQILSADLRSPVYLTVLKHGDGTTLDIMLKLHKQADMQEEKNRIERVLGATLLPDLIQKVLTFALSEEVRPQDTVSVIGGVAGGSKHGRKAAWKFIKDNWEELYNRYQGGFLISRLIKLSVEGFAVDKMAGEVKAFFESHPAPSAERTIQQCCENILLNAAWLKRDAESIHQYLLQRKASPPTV
Protocol: (§1) Purified recombinant human enzymes were purchased from R&D Systems (Minneapolis, MN). […] Each substrate was diluted to 100 μM in the assay buffer recommended for each enzyme by the supplier. […] To these, 5 μl of diluted enzyme was added, followed by 10 μl of the quenched peptide substrate. The plates were incubated at 37°C until at least 10% substrate turnover or 5 μM product had formed. Fluorescence was measured using a Tecan Safire II (Excitation 320 nm/Emission 420 nm). Each plate included a standard curve of reaction product and positive (no enzyme) and negative (dimethyl sulfoxide vehicle) controls. Dose-response data were plotted and inhibition values (IC50) determined by linear regression analysis using GraphPad Prism (GraphPad Software, La Jolla, CA).

[2] = molecular target: T2, ECE-1 (Homo sapiens, UniProt P42892); experiment: biochemical
T2 construct: purchased R&D Systems (Minneapolis, MN)
T2 sequence (P42892 1-770): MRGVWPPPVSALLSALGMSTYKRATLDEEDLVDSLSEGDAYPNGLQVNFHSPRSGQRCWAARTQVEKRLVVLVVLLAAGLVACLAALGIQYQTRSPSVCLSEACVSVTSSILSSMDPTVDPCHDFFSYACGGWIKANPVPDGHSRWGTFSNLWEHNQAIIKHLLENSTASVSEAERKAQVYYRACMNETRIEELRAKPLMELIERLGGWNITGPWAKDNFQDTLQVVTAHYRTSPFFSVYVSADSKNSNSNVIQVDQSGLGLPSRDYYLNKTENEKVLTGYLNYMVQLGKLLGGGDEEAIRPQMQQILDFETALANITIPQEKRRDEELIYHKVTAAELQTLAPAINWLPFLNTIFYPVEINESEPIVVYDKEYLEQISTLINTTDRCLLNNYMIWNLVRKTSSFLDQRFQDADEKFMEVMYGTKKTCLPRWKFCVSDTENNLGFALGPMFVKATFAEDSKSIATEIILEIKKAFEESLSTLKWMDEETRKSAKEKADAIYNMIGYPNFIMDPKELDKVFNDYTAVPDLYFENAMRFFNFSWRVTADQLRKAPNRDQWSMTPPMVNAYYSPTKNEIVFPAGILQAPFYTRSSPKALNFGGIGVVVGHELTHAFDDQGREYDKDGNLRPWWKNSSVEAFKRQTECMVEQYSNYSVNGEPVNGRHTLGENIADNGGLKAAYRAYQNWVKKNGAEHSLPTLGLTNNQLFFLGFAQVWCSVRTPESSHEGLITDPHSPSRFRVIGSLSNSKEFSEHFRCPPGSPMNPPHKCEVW
Protocol: as §1

[3] = molecular target: T3, ACE (Homo sapiens, UniProt P12821); experiment: Purified peptidase assay, ACE; format: biochemical
T3 construct: purchased R&D Systems (Minneapolis, MN)
T3 sequence (P12821 30-1306): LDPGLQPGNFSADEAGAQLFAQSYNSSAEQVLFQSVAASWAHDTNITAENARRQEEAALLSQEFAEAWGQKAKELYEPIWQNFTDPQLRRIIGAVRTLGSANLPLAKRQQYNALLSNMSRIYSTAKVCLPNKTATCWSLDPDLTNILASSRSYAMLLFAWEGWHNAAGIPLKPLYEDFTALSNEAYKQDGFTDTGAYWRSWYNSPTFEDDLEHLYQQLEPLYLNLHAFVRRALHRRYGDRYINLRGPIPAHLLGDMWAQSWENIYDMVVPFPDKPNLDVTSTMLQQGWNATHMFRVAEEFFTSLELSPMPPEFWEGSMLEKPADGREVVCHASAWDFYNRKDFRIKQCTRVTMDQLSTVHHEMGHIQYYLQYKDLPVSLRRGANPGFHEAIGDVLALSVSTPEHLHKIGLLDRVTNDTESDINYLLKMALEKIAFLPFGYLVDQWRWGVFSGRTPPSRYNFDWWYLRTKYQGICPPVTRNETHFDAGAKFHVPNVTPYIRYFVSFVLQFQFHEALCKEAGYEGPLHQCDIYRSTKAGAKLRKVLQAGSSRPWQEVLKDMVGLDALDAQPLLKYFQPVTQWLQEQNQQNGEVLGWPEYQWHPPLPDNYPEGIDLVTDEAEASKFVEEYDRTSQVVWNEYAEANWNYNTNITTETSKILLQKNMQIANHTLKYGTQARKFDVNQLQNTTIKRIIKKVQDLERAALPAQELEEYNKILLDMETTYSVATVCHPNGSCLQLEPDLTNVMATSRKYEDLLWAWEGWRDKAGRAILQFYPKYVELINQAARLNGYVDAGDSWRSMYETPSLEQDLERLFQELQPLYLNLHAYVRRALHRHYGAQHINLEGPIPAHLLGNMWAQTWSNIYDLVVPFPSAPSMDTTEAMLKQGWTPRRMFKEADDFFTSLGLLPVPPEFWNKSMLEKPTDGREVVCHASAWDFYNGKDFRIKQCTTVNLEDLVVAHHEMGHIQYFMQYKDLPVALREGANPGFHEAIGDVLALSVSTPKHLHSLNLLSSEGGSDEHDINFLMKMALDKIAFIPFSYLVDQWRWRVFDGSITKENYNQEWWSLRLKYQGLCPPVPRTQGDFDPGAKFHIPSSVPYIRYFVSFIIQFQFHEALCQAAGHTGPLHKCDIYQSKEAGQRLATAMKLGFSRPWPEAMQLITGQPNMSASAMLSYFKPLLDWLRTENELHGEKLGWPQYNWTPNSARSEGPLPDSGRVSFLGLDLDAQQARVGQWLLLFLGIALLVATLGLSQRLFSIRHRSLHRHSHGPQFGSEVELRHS
Protocol: as §1

[4] = molecular target: T4, ECE-2 (Homo sapiens, UniProt P0DPD6); experiment: Purified peptidase assay, ECE-2; format: biochemical
T4 construct: purchased R&D Systems (Minneapolis, MN)
T4 sequence (P0DPD6 1-811): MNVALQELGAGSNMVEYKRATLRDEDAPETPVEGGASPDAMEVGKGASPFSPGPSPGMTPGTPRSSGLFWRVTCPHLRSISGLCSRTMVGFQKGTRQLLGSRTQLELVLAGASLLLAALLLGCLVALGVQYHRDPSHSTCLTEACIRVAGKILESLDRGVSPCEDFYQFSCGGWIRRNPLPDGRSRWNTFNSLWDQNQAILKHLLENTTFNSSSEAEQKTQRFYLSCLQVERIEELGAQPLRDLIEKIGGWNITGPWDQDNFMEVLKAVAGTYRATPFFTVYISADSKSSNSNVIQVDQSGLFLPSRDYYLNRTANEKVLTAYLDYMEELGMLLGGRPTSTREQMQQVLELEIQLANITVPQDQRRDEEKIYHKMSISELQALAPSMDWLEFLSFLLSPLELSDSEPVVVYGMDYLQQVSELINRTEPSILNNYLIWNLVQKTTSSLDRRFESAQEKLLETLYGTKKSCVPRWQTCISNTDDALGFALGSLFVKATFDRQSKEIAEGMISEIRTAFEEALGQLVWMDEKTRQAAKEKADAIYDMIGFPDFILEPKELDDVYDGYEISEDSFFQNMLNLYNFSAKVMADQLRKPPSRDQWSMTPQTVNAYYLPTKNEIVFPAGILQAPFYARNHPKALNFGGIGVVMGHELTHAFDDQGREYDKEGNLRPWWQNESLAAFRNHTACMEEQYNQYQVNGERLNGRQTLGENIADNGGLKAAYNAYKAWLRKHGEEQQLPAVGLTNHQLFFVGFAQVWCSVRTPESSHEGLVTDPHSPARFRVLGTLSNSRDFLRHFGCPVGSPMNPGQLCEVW
Protocol: as §1

[5] = molecular target: T5, IDE (Homo sapiens, UniProt P14735); experiment: Purified peptidase assay, IDE; format: biochemical
T5 construct: purchased R&D Systems (Minneapolis, MN)
T5 sequence (P14735 1-1019): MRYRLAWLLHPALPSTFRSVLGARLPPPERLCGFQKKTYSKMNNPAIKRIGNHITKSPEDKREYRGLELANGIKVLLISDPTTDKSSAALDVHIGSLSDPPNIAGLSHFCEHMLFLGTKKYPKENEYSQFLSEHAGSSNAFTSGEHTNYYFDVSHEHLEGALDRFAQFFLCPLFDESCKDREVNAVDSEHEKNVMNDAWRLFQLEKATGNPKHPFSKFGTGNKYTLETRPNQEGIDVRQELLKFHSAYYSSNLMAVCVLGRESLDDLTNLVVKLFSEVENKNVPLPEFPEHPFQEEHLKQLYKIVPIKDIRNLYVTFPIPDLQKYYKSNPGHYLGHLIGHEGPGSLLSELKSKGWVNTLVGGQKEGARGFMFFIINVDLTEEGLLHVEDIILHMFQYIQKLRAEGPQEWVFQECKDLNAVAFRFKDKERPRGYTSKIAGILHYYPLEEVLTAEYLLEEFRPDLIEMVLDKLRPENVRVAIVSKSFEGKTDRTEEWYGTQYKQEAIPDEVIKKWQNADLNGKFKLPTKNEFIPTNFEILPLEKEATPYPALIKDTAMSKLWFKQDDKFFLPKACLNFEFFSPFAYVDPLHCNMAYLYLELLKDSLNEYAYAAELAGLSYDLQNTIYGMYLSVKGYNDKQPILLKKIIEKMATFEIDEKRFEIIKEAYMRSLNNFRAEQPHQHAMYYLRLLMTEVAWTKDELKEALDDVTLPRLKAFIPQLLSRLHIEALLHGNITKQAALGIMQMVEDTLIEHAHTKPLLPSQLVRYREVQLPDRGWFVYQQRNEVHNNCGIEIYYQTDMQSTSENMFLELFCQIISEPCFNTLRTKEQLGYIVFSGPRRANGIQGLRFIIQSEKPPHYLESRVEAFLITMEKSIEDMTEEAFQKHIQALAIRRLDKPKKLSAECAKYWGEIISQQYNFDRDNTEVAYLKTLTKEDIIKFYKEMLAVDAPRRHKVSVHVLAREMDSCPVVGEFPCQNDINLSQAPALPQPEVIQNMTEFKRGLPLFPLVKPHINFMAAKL
Protocol: as §1

[6] = molecular target: T6, NEP (Homo sapiens, UniProt P08473); experiment: Purified peptidase assay, NEP; format: biochemical
T6 construct: purchased R&D Systems (Minneapolis, MN)
T6 sequence (P08473 whole entry): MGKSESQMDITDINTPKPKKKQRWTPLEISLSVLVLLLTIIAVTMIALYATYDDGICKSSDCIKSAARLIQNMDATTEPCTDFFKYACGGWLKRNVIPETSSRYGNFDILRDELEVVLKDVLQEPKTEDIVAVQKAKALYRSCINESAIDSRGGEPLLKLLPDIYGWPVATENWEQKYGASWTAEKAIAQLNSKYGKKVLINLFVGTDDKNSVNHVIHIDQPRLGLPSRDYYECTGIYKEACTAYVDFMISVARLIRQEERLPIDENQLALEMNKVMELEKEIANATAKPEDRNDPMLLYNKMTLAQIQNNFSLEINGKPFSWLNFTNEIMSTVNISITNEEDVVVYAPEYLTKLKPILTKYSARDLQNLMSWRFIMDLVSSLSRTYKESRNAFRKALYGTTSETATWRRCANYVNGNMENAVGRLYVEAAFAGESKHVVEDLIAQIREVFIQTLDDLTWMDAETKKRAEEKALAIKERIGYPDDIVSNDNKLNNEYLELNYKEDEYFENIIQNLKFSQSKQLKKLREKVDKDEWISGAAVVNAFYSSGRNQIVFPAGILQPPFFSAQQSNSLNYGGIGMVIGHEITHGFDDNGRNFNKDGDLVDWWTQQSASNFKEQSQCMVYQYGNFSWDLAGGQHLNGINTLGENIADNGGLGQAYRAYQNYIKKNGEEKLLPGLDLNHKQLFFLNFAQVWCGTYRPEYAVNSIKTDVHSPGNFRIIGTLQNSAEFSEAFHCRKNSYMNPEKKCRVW
Protocol: as §1

[7] = molecular target: T7, aminopeptidase N (Homo sapiens, UniProt P15144); experiment: Purified peptidase assay, APN; format: biochemical
T7 construct: purchased R&D Systems (Minneapolis, MN)
T7 sequence (P15144 whole entry): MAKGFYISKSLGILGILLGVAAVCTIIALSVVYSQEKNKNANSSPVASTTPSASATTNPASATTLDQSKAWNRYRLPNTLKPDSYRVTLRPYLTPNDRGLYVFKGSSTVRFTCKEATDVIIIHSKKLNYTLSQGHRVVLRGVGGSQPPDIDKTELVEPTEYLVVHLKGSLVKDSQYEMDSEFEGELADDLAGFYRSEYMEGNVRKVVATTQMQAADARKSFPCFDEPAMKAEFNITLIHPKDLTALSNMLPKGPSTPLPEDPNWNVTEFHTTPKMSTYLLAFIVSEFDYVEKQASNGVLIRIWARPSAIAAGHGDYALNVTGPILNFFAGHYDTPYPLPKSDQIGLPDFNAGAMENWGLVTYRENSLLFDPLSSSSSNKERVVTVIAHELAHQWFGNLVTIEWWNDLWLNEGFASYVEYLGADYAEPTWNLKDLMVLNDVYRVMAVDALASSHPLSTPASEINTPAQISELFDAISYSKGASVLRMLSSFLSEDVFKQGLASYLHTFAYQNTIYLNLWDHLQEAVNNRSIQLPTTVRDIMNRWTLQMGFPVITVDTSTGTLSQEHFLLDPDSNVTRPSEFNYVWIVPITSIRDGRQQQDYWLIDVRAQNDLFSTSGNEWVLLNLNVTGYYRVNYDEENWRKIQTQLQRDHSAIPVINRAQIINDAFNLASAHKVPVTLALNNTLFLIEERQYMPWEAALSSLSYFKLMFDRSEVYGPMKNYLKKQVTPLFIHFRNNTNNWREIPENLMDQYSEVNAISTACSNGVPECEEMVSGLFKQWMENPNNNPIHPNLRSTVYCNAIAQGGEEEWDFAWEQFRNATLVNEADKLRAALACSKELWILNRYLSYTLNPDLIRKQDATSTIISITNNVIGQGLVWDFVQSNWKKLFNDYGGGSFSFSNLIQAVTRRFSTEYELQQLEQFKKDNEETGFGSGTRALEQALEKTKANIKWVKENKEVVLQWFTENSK
Protocol: as §1

Row | IC50 [1] [µM] | IC50 [2] [µM] | IC50 [3] [µM] | IC50 [4] [µM] | IC50 [5] [µM] | IC50 [6] [µM] | IC50 [7] [µM] | SMILES
1 | > 100 | 21 | 0.19 | 86 | > 100 | 0.04 | 28 | O=C(N[C@H]1CCS[C@H]2CCC[C@@H](C(=O)O)N2C1=O)[C@@H](S)Cc1ccccc1 [Omapatrilat]
2 | 18 | 12 | 0.23 | 77 | > 100 | 0.06 | 18 | CC1(C)CCC[C@H](NC(=O)[C@@H](S)Cc2ccccc2)C(=O)N1CC(=O)O [Gemopatrilat]
